Source: patent US9717733B2, “Edible plant-derived microvesicle compositions including conjugated therapeutic agents and methods for using the same” (priority 2014, dated 2017)

Columns and labels:
[1] = test system: DSS-induced colitis in mice; assay: DSS-induced colitis, therapeutic effect of GMTX; type: in vivo, mouse; conditions: 5 mg/kg oral on day 3, 5 and 6 of DSS
Experimental: Colitis was induced in mice by addition of 2% (wt/vol) DSS (MW 36-50 KD molecular weight, MP Biomedicals, OH) in their drinking water for the duration of the study. DSS solution was freshly prepared every other day. Body weight and physical activity were monitored daily. To test the protective effect of GDNs, mice fasted for 4 h were orally given either PBS or 10 mg/kg of GDNs daily for 7 days and then treated with 2% DSS in drinking water for 7 days to induce colitis with continued administration of GDNs. To test the therapeutic effect of GMTX, colitis was first induced in mice by providing 2% DSS in their drinking water. On day 3, 5 and 6 of DSS-induced colitis, mice were treated with free MTX (5 mg/kg body weight) or GMTX (MTX equaled to 5 mg/kg) by oral administration. […]
For histopathology, tissues were fixed in 10% neutral formalin and then embedded in paraffin. […] Histological examination was performed in a blinded fashion and the severity of colitis was scored as described previously. […] E-cadherin and F4/80 binding was detected by Alexa Fluor 488 conjugated goat anti-mouse IgG or goat anti-rat IgG (1:600, Invitrogen), respectively. […]
To assess the local levels of IL-6, IL-1β, TNF-α, organ cultures were generated from naïve, GDN, PBS/DSS and GDN/DSS challenged mice. […] The local levels of PGE2 were determined by a PGE2-specific EIA (Cayman Chemical, Ann Arbor, Mich.) as described previously. […]

Raw264.7 macrophages = assay: Internalization assay (GDN uptake with endocytosis inhibitors); type: cell-based, mouse; conditions: 30 min pretreatment: 50 μM amiloride, 12.5 μM chlorpromazine or 100 μM indomethacin; 2 μg/ml PKH26-labeled GDNs, 3 h
Experimental: Macrophages were plated on Lab-Tek chamber slide (Sigma) and incubated for 24 h in growth medium. Before the uptake assay, GDNs were labeled with PKH26, sucrose gradient purified and diluted in PBS. Uptake was performed by incubating cell cultures with 2 μg/ml of GDNs for 3 h in a humid chamber (37° C., 5% CO2). For inhibition experiments, cell cultures were pre-incubated with individual inhibitors for 30 min before performing the uptake experiments.

| SMILES | symptoms of colitis vs PBS treated mice (colon tissue damage, colon length reduction, E-cadherin expression) [1] | inhibition of GDN uptake (Raw264.7 macrophages) |
| --- | --- | --- |
| CN(Cc1cnc2nc(N)nc(N)c2n1)c1ccc(C(=O)N[C@@H](CCC(=O)O)C(=O)O)cc1 [free MTX, methotrexate] | aggravated symptoms of colitis | – |
| COc1ccc2c(c1)c(CC(=O)O)c(C)n2C(=O)c1ccc(Cl)cc1 [indomethacin] | – | did not significantly alter |
